Data as given in the supplement of paper PMC6045584.
± gives the standard deviation of the averaged measurements.

Legend:
VISMODEGIB = compound: CS(=O)(=O)c1ccc(C(=O)Nc2ccc(Cl)c(-c3ccccn3)c2)c(Cl)c1 [VISMODEGIB]; experiment: surviving fraction relative to DMSO-only wells; higher = less growth inhibition; details: exposure time: 5 days
Summary of the method: (§1)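 Viability was determined by CellTiter-Glo luminescence, expressed as surviving fraction normalised to the median of DMSO-only wells. The cells were log-phase tumour cell lines seeded at 250–500 per well in 384-well plates and, after 24 hours, exposed continuously for five days to inhibitors at 0.5, 1, 5, 10, 50, 100, 500 and 1000 nM. Three screens per line were run, keeping only lines with replicate Pearson r >0.7 and median Z' >0.3.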

DECITABINE = compound: Nc1ncn([C@H]2C[C@H](O)[C@@H](CO)O2)c(=O)n1 [DECITABINE]; experiment: as above; details: exposure time: 5 days
Summary of the method: as §1

Test System | surviving fraction (VISMODEGIB; 0.5 nM) | surviving fraction (VISMODEGIB; 1 nM) | surviving fraction (VISMODEGIB; 5 nM) | surviving fraction (VISMODEGIB; 10 nM) | surviving fraction (VISMODEGIB; 50 nM) | surviving fraction (VISMODEGIB; 100 nM) | surviving fraction (VISMODEGIB; 500 nM) | surviving fraction (VISMODEGIB; 1000 nM) | surviving fraction (DECITABINE; 0.5 nM) | surviving fraction (DECITABINE; 1 nM) | surviving fraction (DECITABINE; 5 nM) | surviving fraction (DECITABINE; 10 nM) | surviving fraction (DECITABINE; 50 nM) | surviving fraction (DECITABINE; 100 nM) | surviving fraction (DECITABINE; 500 nM) | surviving fraction (DECITABINE; 1000 nM)
PCI30 HEADNECK | 0.911 ± 0.028 | 0.956 ± 0.07 | 0.96 ± 0.04 | 0.947 ± 0.065 | 0.898 ± 0.079 | 0.949 ± 0.017 | 0.844 ± 0.077 | 0.876 ± 0.043 | 1.04 ± 0.03 | 1.03 ± 0.052 | 0.987 ± 0.053 | 1.06 ± 0.034 | 0.963 ± 0.065 | 0.96 ± 0.079 | 0.843 ± 0.056 | 1.08 ± 0.075
RDES SOFT TISSUE | 1.06 ± 0.088 | 1.1 ± 0.047 | 1.11 ± 0.22 | 1.16 ± 0.034 | 0.677 ± 0.3 | 0.83 ± 0.34 | 0.761 ± 0.18 | 0.717 ± 0.32 | 1.24 ± 0.016 | 1.14 ± 0.033 | 1.18 ± 0.15 | 0.972 ± 0.05 | 1.13 ± 0.13 | 1.29 ± 0.16 | 1.11 ± 0.16 | 1.41 ± 0.28
S68 BREAST | 0.99 ± 0.087 | 0.839 ± 0.11 | 1.21 ± 0.25 | 1.04 ± 0.2 | 0.762 ± 0.19 | 0.917 ± 0.23 | 0.805 ± 0.12 | 0.621 ± 0.058 | 0.828 ± 0.28 | 0.903 ± 0.17 | 1.15 ± 0.28 | 1.13 ± 0.24 | 0.697 ± 0.21 | 0.926 ± 0.2 | 0.541 ± 0.13 | 0.445 ± 0.013
SAOS2 BONE | 1.11 ± 0.052 | 1.097 ± 0.0075 | 1.08 ± 0.059 | 1.099 ± 0.0081 | 0.834 ± 0.082 | 0.954 ± 0.052 | 0.85 ± 0.036 | 0.916 ± 0.055 | 1.09 ± 0.027 | 1.11 ± 0.037 | 1.1 ± 0.027 | 1.02 ± 0.042 | 1.01 ± 0.051 | 0.88 ± 0.07 | 0.742 ± 0.057 | 0.581 ± 0.12
SCC003 HEADNECK | 0.956 ± 0.073 | 0.988 ± 0.029 | 1.05 ± 0.17 | 1.06 ± 0.11 | 0.918 ± 0.082 | 1.05 ± 0.14 | 0.852 ± 0.08 | 0.98 ± 0.056 | 1.03 ± 0.038 | 1.03 ± 0.032 | 1.06 ± 0.067 | 1.03 ± 0.055 | 0.922 ± 0.047 | 0.788 ± 0.032 | 0.718 ± 0.032 | 0.635 ± 0.065
SCC36 HEADNECK | 0.88 ± 0.031 | 0.979 ± 0.033 | 1.07 ± 0.048 | 1.05 ± 0.051 | 0.739 ± 0.094 | 0.779 ± 0.085 | 0.731 ± 0.071 | 0.721 ± 0.076 | 1.01 ± 0.05 | 1.01 ± 0.054 | 1.05 ± 0.15 | 1.05 ± 0.09 | 1.04 ± 0.089 | 0.934 ± 0.067 | 0.709 ± 0.054 | 0.648 ± 0.074
SCC47 HEADNECK | 0.968 ± 0.064 | 1 ± 0.07 | 0.992 ± 0.044 | 1.04 ± 0.07 | 0.892 ± 0.026 | 0.963 ± 0.026 | 0.9167 ± 0.004 | 0.954 ± 0.016 | 1.07 ± 0.084 | 1.08 ± 0.13 | 1.08 ± 0.012 | 1.09 ± 0.067 | 1.03 ± 0.058 | 1.03 ± 0.03 | 0.973 ± 0.028 | 0.863 ± 0.1
SCC90 HEADNECK | 0.824 ± 0.014 | 0.945 ± 0.051 | 0.908 ± 0.092 | 1.01 ± 0.023 | 0.848 ± 0.026 | 0.84 ± 0.053 | 0.841 ± 0.015 | 0.881 ± 0.029 | 0.985 ± 0.073 | 0.995 ± 0.065 | 1.11 ± 0.075 | 1.03 ± 0.072 | 1.13 ± 0.074 | 1.11 ± 0.018 | 1.3 ± 0.25 | 1.05 ± 0.17
SG27 HEADNECK | 0.942 ± 0.013 | 0.974 ± 0.13 | 1 ± 0.062 | 0.962 ± 0.071 | 0.933 ± 0.039 | 0.961 ± 0.052 | 0.9 ± 0.052 | 1.03 ± 0.13 | 1.17 ± 0.15 | 1.12 ± 0.06 | 1.15 ± 0.14 | 1.07 ± 0.14 | 1.2 ± 0.065 | 1.18 ± 0.14 | 1.11 ± 0.063 | 1.19 ± 0.16
SG28 HEADNECK | 1 ± 0.033 | 0.995 ± 0.042 | 0.979 ± 0.096 | 0.921 ± 0.096 | 0.801 ± 0.043 | 0.831 ± 0.019 | 0.837 ± 0.076 | 0.929 ± 0.099 | 1.14 ± 0.054 | 1.28 ± 0.038 | 1.2 ± 0.062 | 1.06 ± 0.098 | 1.25 ± 0.14 | 1.11 ± 0.045 | 1.11 ± 0.13 | 1.065 ± 0.0021
SG31 HEADNECK | 0.965 ± 0.17 | 1.01 ± 0.2 | 0.946 ± 0.088 | 1.11 ± 0.22 | 0.783 ± 0.031 | 0.94 ± 0.054 | 0.834 ± 0.049 | 0.826 ± 0.091 | 1.27 ± 0.12 | 1.2 ± 0.059 | 1.14 ± 0.083 | 1.13 ± 0.1 | 1.08 ± 0.04 | 0.952 ± 0.11 | 1.01 ± 0.13 | 0.909 ± 0.095
SG32 HEADNECK | 1.01 ± 0.031 | 1.08 ± 0.11 | 1.07 ± 0.17 | 1.58 ± 0.69 | 0.857 ± 0.06 | 1.08 ± 0.26 | 0.844 ± 0.14 | 0.873 ± 0.075 | 1.25 ± 0.11 | 1.26 ± 0.16 | 1.12 ± 0.12 | 1.16 ± 0.067 | 1.25 ± 0.36 | 1.1 ± 0.14 | 0.908 ± 0.071 | 0.715 ± 0.064
SG43 HEADNECK | 0.961 ± 0.18 | 1.15 ± 0.63 | 0.861 ± 0.075 | 0.972 ± 0.32 | 1.18 ± 0.35 | 0.9673 ± 0.0015 | 1.17 ± 0.3 | 1.18 ± 0.14 | 1.02 ± 0.031 | 1.14 ± 0.16 | 0.953 ± 0.11 | 1.03 ± 0.48 | 0.835 ± 0.18 | 0.868 ± 0.2 | 0.812 ± 0.062 | 0.8 ± 0.049
SIHA CERVIX | 0.961 ± 0.024 | 1.08 ± 0.038 | 1.03 ± 0.045 | 1.06 ± 0.025 | 0.923 ± 0.044 | 0.993 ± 0.12 | 0.895 ± 0.097 | 0.991 ± 0.064 | 1.08 ± 0.026 | 0.979 ± 0.052 | 1.08 ± 0.02 | 1.05 ± 0.055 | 1.07 ± 0.055 | 1.08 ± 0.085 | 0.983 ± 0.055 | 0.988 ± 0.11
SJSA1 BONE | 0.999 ± 0.043 | 1.01 ± 0.07 | 1.04 ± 0.024 | 1.01 ± 0.045 | 1.04 ± 0.073 | 1.02 ± 0.052 | 1.02 ± 0.093 | 0.985 ± 0.05 | 0.512 ± 0.028 | 1.53 ± 0.038 | 1.63 ± 0.11 | 0.545 ± 0.031 | 1.55 ± 0.081 | 1.68 ± 0.022 | 1.73 ± 0.05 | 1.77 ± 0.053
SKBR3 BREAST | 1.15 ± 0.085 | 0.954 ± 0.027 | 0.907 ± 0.059 | 0.975 ± 0.09 | 1.01 ± 0.068 | 0.896 ± 0.029 | 0.764 ± 0.026 | 0.774 ± 0.075 | 1.02 ± 0.11 | 1.12 ± 0.0031 | 1.13 ± 0.035 | 0.959 ± 0.042 | 1.03 ± 0.094 | 1 ± 0.1 | 0.996 ± 0.017 | 0.931 ± 0.089
SNU475 LIVER | 0.959 ± 0.046 | 0.946 ± 0.057 | 0.967 ± 0.019 | 0.982 ± 0.0087 | 0.884 ± 0.032 | 0.89 ± 0.03 | 0.869 ± 0.024 | 0.902 ± 0.012 | 1.06 ± 0.024 | 1.05 ± 0.024 | 1.051 ± 0.0036 | 1.02 ± 0.026 | 1.03 ± 0.017 | 0.984 ± 0.038 | 1.03 ± 0.036 | 1.03 ± 0.032
SUM44 BREAST | 0.945 ± 0.033 | 0.951 ± 0.048 | 0.994 ± 0.017 | 0.934 ± 0.02 | 0.929 ± 0.051 | 0.9713 ± 0.0095 | 0.924 ± 0.14 | 0.876 ± 0.055 | 1.15 ± 0.17 | 1.1 ± 0.16 | 1.17 ± 0.23 | 1.14 ± 0.17 | 1.31 ± 0.26 | 1.23 ± 0.15 | 1.13 ± 0.12 | 1.15 ± 0.069
SUM149 BREAST | 0.871 ± 0.11 | 0.856 ± 0.042 | 0.968 ± 0.053 | 0.877 ± 0.0066 | 0.904 ± 0.1 | 0.887 ± 0.014 | 0.945 ± 0.088 | 0.895 ± 0.077 | 1.11 ± 0.11 | 1.03 ± 0.13 | 0.845 ± 0.047 | 0.807 ± 0.09 | 0.366 ± 0.0027 | 0.359 ± 0.022 | 0.261 ± 0.0076 | 0.245 ± 0.012
SUM149.B1*.S BREAST | 0.992 ± 0.064 | 0.971 ± 0.056 | 0.981 ± 0.033 | 0.987 ± 0.039 | 0.922 ± 0.051 | 0.988 ± 0.0033 | 0.9072 ± 0.0081 | 0.913 ± 0.054 | 1.09 ± 0.037 | 1.03 ± 0.044 | 1.05 ± 0.06 | 0.98 ± 0.058 | 0.749 ± 0.062 | 0.66 ± 0.062 | 0.553 ± 0.043 | 0.496 ± 0.061
SUM159 BREAST | 1.14 ± 0.23 | 1.12 ± 0.17 | 1.14 ± 0.22 | 1.15 ± 0.22 | 1.06 ± 0.12 | 1.08 ± 0.084 | 1.12 ± 0.2 | 1.11 ± 0.14 | 1.1 ± 0.024 | 1.079 ± 0.0093 | 1.09 ± 0.023 | 1.06 ± 0.017 | 1.05 ± 0.012 | 1.028 ± 0.004 | 1.03 ± 0.015 | 0.9957 ± 0.0076
